{
  "source": "paper PMC6788984",
  "about": "“High-potency ligands for DREADD imaging and activation in rodents and monkeys” (Nature Communications, 2019)",
  "key": {"[1]": {"molecular_target": "T1, hM4Di (Homo sapiens, UniProt P08173, A203G/Y113C)", "T1 sequence (P08173 1-479 Y113C/A203G)": "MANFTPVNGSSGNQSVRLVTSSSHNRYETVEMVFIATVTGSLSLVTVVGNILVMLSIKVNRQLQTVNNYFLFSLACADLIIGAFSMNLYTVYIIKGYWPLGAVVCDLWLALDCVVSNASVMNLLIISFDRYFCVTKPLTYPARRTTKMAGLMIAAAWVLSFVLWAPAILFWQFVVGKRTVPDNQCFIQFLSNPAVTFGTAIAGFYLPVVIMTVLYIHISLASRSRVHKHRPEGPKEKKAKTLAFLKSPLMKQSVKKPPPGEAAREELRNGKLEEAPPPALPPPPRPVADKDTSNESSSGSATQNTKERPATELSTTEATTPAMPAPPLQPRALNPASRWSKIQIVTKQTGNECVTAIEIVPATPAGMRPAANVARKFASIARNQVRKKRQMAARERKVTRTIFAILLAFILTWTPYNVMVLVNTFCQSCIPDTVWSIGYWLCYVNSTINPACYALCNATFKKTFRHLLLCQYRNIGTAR", "assay": "[3H]clozapine competition binding, membranes of HEK-293 cells expressing hM4Di", "protocol": "(§2) Cells were routinely tested for myclopasma contamination (MycoAlert® Mycoplasma Detection Kit, Lonza). Cells were seeded on 60 cm^2 dishes at 4 × 10^6 cells/dish 24 h before transfection. The indicated amount of cDNA was transfected into HEK-293 cells using polyethylenimine (PEI; Sigma-Aldrich) in a 1–2 DNA:PEI ratio. Cell harvesting for radioligand binding experiments or signaling assays were performed approximately 48 h after transfection.\n(§3) Cells were suspended in Tris-HCl 50 mM pH 7.4 supplemented with protease inhibitor cocktail (1:100, Sigma-Aldrich, St. Louis, MO, USA). The dissected brain tissue was diluted in Tris-HCl 50 mM buffer supplemented with protease inhibitor cocktail (1:1000). HEK-293 cells or brain tissue were disrupted with a Polytron homogenizer (Kinematica, Basel, Switzerland). Homogenates were centrifuged at 48,000g (50 min, 4 °C) and washed twice in the same conditions to isolate the membrane fraction. Protein was quantified by the bicinchoninic acid method (Pierce). […] In all cases, free and membrane-bound radioligand were separated by rapid filtration of 500-μl aliquots in a 96-well plate harvester (Brandel, Gaithersburg, MD, USA) and washed with 2 ml of ice-cold Tris-HCl buffer. […] One-site competition curves were fitted using Prism 7 (GraphPad Software, La Jolla, CA, USA). Ki values were calculated using the Cheng–Prusoff equation."}, "[2]": {"molecular_target": "T1, hM4Di", "assay": "[18F]JHU37107 PET in a monkey expressing hM4Di in the right amygdala", "type": "in vivo, rhesus monkey (Macaca mulatta)", "parameters": "expressed in transfected cells; host or cells: rhesus monkey (Macaca mulatta) right amygdala, lentivirus-transduced neurons", "conditions": "mean", "method": "Lentivirus expressing an hM4Di-CFP fusion protein under an hSyn promoter[11] with a titer of >10^9 infectious particles was loaded into a 100 µL glass syringe (Hamilton Co., MA). The 31-gauge needle of the syringe was sheathed with a silica capillary (450 µm OD) to create a step 1 mm from the base of the aperture. The syringe was mounted in a Nanomite pump (Harvard Apparatus, Cambridge, MA). The needle was lowered through the incision in the dura mater to each of the pre-calculated target sites and 10 or 20 µL was infused at a rate of 1 µL min^−1. Each monkey received a total of between 10 and 12 injections (for a total injection volume of 120–240 µL). Post-infusion, the needle was left in situ for 10 min after each injection to allow pressure from the infusate to dissipate. The needle was then slowly removed. At the completion of the injection series the soft tissues were sutured together in anatomical layers.\n(§1) [^18F]JHU37107 was prepared via the no-carrier-added ^18F-fluorination using an FDG Nuclear Interface module (Muenster, Germany). Briefly, 4 mg precursor (8-chloro-11-(4-ethylpiperazin-1-yl)-5H-dibenzo[b,e][1,4]diazepin-2-ol) and 8 mg tris(acetonitrile)cyclopentadienylruthenium(II)hexafluorophosphate (STREM, Boston, MA) were dissolved in ethanol (0.3 mL), the solution was heated at 85 °C for 25 min and evaporated to dryness under a stream of argon gas. The residue was dissolved in DMSO (0.5 mL) and acetonitrile (0.5 mL) and the solution was added to a dry complex of [^18F]fluoride and 9 mg 1,3-bis(2,6-di-i-propylphenyl)-2-chloroimidazolium chloride (STREM). The reaction mixture was heated at 130 °C for 30 min, diluted with mixture of 0.5 mL acetonitrile, 0.5 mL water and 0.03 mL TFA and injected onto a semi-preparative HPLC column (Luna C18, 10 micron, 10 mm × 250 mm) and eluted with 23:77 (v:v) acetonitrile:water (0.1% trifluoroacetic acid) at a flow rate of 10 mL min^−1. The radioactive peak corresponding to [^18F]JHU37107 (tR = 9.9 min) was collected in a reservoir containing 50 mL of water and 3 mL aq 8.4% NaHCO3 solution. The diluted product was loaded onto a solid phase extraction cartridge (Waters Oasis HLB plus light) and rinsed with 10 mL sterile saline. The product was eluted with 1000 µL of ethanol through a sterile 0.2 μm filter into a sterile, pyrogen-free vial and 10 mL saline was added through the same filter. The final product [^18F]JHU37107 was then analyzed by analytical HPLC (Luna C18, 10 micron, 4.6 mm × 250 mm; mobile phase 23:77 (v:v) acetonitrile:water (0.1% trifluoroacetic acid), flow rate of 3 mL min^−1; tR = 6.4 min) using a UV detector at 254 nm to determine the radiochemical purity (>95%) and specific radioactivity (152–188 GBq μmol^−1 (4100–5070 mCi μmol^−1)) at the time synthesis ended.\nAll macaque studies were acquired dynamically on the Focus 220 PET scanner (Siemens Medical Solutions, Knoxville, TN). The Focus 220 is a dedicated pre-clinical scanner with a transaxial FOV of 19 cm and an axial FOV of 7.5 cm. Image resolution is <2 mm within the central 5 cm FOV.\nAfter initial evaluation the monkey was sedated with ketamine (10 mg kg^−1) followed by ketoprofen (as an analgesic) and glycopyrrolate (for salvia reduction), all weight dependent IM injections. The monkey would then be placed in the supine position, intubated with a tracheal tube. […] The monkey was always monitored while anesthetized. […]"}, "[3]": {"tested_on": "DREADDs", "assay": "[18F]JHU37107 PET in D1-DREADD transgenic mice", "type": "in vivo", "method": "as §1, with “[…] .” for “tR = 6.4 min) using a UV detector at 254 nm to determine the radiochemical purity (>95%) and specific radioactivity (152–188 GBq μmol^−1 (4100–5070 mCi μmol^−1)) at the time synthesis ended.”\nTotal acquisition time was 60 min."}, "[4]": {"molecular_target": "hM3Dq (Homo sapiens, UniProt P20309, A239G/Y149C)", "sequence (P20309 whole entry Y149C/A239G)": "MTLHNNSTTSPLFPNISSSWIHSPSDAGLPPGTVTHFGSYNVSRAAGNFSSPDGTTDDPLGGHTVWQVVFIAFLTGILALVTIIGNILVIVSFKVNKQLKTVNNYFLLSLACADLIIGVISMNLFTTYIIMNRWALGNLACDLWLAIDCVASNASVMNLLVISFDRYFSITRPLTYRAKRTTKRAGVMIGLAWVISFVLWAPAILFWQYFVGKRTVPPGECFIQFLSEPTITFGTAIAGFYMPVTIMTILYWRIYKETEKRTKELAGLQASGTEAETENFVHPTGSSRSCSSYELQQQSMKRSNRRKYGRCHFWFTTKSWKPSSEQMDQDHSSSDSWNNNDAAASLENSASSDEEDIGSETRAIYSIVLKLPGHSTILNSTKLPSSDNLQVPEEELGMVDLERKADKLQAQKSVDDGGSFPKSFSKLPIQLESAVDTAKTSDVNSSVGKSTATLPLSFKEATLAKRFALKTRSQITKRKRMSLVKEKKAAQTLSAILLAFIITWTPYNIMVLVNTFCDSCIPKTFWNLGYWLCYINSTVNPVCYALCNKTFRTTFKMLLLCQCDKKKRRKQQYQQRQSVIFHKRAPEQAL", "assay": "[3H]clozapine competition binding, membranes of HEK-293 cells expressing hM3Dq", "protocol": "as §2, §3"}, "[5]": {"tested_on": "untransfected HEK-293 cells", "assay": "Negative controls of the functional assays: HEK-293 cells without DREADD", "type": "cell-based, human", "conditions": "HEK-293 cells", "method": "BRET assays were performed to detect receptor ligand-induced Gαo1 protein activation. […] Forty-eight hour after transfection cells were harvested, washed and resuspended in phosphate-buffered saline (PBS). Approximately, 200,000 cells/well were distributed in 96-well plates, and 5 µM Coelenterazine H (substrate for luciferase) was added to each well. Five minutes after addition of Coelenterazine H, ligands were added to each well. The fluorescence of the acceptor was quantified (excitation at 500 nm and emission at 540 nm for 1-s recordings) in a PheraStar FSX plate reader (BMG Labtech) to confirm the constant expression levels across experiments. In parallel, the BRET signal from the same batch of cells was determined as the ratio of the light emitted by mVenus (510–540 nm) over that emitted by RLuc (485 nm). Results were calculated for the BRET change (BRET ratio for the corresponding drug minus BRET ratio in the absence of the drug) 5 min after the addition of the ligands.\nIntracellular Ca^2+ concentration was monitored using the fluorescent Ca^2+ biosensor GCaMP6f. HEK-293 cells were transfected with 7 µg/dish of the cDNA encoding for hM3Dq (Addgene #89149) or hM4Di (Addgene #89150) and 7 µg/dish of GCaMP6. Forty-eight hours after transfection, cells were harvested, washed, resuspended in Mg^2+-free Locke’s buffer pH 7.4 (154 mM NaCl, 5.6 mM KCl, 3.6 mM NaHCO3, 2.3 mM CaCl2, and 5 mM HEPES) containing 5.6 mM of glucose and approximately 200,000 cells/well were distributed in black 96-well plates. Increasing concentrations of the indicated compound were added to the cells and fluorescence intensity (excitation at 480 nm, emission at 530 nm) was measured at 18-s intervals during 250 s using a PHERAstar FSX (BMG Labtech). The net change in intracellular Ca^2+ concentration was expressed as F − F0 where F is the fluorescence at a given concentration of ligand and F0 is the average of the baseline values (fluorescence values of buffer-treated wells)."}},
  "note": "Several values for one entry are separate records, joined by “and”; a condition that tells them apart may be missing. Identical values can stand only once.",
  "data": [
    {"smiles": "CCN1CCN(C2=Nc3ccccc3Nc3ccccc32)CC1", "note": "[C22, reference compound]", "values": [
      {"measurement": "Ki", "setting": "[1]", "value": 9, "unit": "nM"}
    ]},
    {"smiles": "CCN1CCN(C2=Nc3cc(Cl)ccc3Nc3ccc([18F])cc32)CC1", "note": "[[18F]JHU37107]", "values": [
      {"measurement": "PET binding value, PFC mean (Figure 4, second Panel l)", "setting": "[2]; PFC", "value": 1.094},
      {"measurement": "PET binding value, PUT mean (Figure 4, second Panel l)", "setting": "[2]; PUT", "value": 1.196},
      {"measurement": "PET binding value, hM4Di mean (Figure 4, second Panel l)", "setting": "[2]; hM4Di region", "value": 2.423},
      {"measurement": "PET binding value, CB (Figure 4 Panel D, first group)", "setting": "[3]; CB, individual values", "value": "0.271 and 0.3157"},
      {"measurement": "PET binding value, CB (Figure 4 Panel D, second group)", "setting": "[3]; CB, individual values", "value": "0.004 and 0.238"},
      {"measurement": "PET binding value, CB (Figure 4 Panel D, third group)", "setting": "[3]; CB, individual values", "value": "0.02536 and 0.05718 and 0.04755"},
      {"measurement": "PET binding value, CTX (Figure 4 Panel D, first group)", "setting": "[3]; CTX, individual values", "value": "0.3049 and 0.3358"},
      {"measurement": "PET binding value, CTX (Figure 4 Panel D, second group)", "setting": "[3]; CTX, individual values", "value": "0.244 and 0.22"},
      {"measurement": "PET binding value, CTX (Figure 4 Panel D, third group)", "setting": "[3]; CTX, individual values", "value": "0.4367 and 0.4206 and 0.3996"},
      {"measurement": "PET binding value, baseline (Figure 4 Panel D)", "setting": "[3]; first line (values equal the STR values of the third group)", "value": "1.736 and 1.664 and 1.424 and 1.7038 and 1.723 and 1.422"},
      {"measurement": "PET binding value, baseline (Figure 4 Panel D)", "setting": "[3]; second line (values equal the CTX values of the third group)", "value": "0.4367 and 0.4206 and 0.3996"},
      {"measurement": "PET binding value, blocked (Figure 4 Panel D)", "setting": "[3]; first line (STR by position)", "value": "0.6764 and 0.9438 and 0.6607 and 0.8306"},
      {"measurement": "PET binding value, blocked (Figure 4 Panel D)", "setting": "[3]; second line (CTX by position)", "value": "0.2742 and 0.4049"},
      {"measurement": "PET binding value, blocked (Figure 4 Panel D)", "setting": "[3]; third line (CB by position)", "value": "0.2463 and 0.2748"}
    ]},
    {"smiles": "CCN1CCN(C2=Nc3cc(Cl)ccc3Nc3ccc(F)cc32)CC1", "note": "[JHU37107, 8-Chloro-11-(4-ethylpiperazin-1-yl)-2-fluoro-5H-dibenzo[b,e][1,4]diazepine]", "values": [
      {"measurement": "Ki", "setting": "[1]", "value": 23.5, "unit": "nM"},
      {"measurement": "Ki", "setting": "[4]", "value": 10.5, "unit": "nM"}
    ]},
    {"smiles": "C[N+]1([O-])CCN(C2=Nc3cc(Cl)ccc3Nc3ccccc32)CC1", "note": "[CNO, clozapine N-oxide, reference compound]", "values": [
      {"measurement": "functional response, BRET (Go-alpha-Rluc8, beta1, gamma2-mVenus), no DREADD", "setting": "[5]", "value": "did not show any functional response"},
      {"measurement": "functional response, GCaMP6f, no DREADD", "setting": "[5]", "value": "did not show any functional response"}
    ]}
  ]
}
